Measurements from patent US7074777B2, “Vitamin D derivatives” (Chugai Seiyaku Kabushiki Kaisha, priority 2000, dated 2006).

Assays:
[1] = test system: Keratinocytes derived from human neonatal foreskin; test: Test Example 2: inhibition of human keratinocyte proliferation ([3H] thymidine uptake); assay type: cell-based; details: relative value = [IC50 (mol/l) of 1α,25(OH)2vitamin D3]/[IC50 (mol/l) of each Compound]
Protocol: Keratinocytes derived from human neonatal foreskin (Clonetics) were inoculated in 96 well-plates (COSTAR 3595) at 2×10^3 cells/well. Active vitamin D3 (1α,25(OH)2D3) and Compounds 1 to 13 at various concentrations were added to respective wells and cultured at 2×10^3 cells/200 μl/well in KGM-2 medium for 3 days at 37° C. in 5% CO2 and 95% air. After adding [^3H] thymidine at 7.4 kBq/well, the cell culture was continued for further 1 day. After washing the wells with phosphate buffer free of calcium and magnesium (Dulbecco PBS(−), NISSUI, code 05913, pH 7.3 to 7.65) once, the cells were stripped using 0.25% […]. The [^3H] thymidine uptake of the cells was measured by a liquid scintillation counter (1450 microbeta, WALLAC). In the Table, the inhibition of human keratinocyte proliferation is expressed as follows: the relative value of each Compound with respect to active vitamin D3=[IC50 (mol/l) of 1α,25(OH)2vitamin D3]/[IC50 (mol/l) of each Compound]

[2] = Test Example 1: ionized calcium level in blood after single percutaneous application to dorsal skin of mice (ion selective electrode method); assay type: in vivo; details: Balb/c mice, dosage 1000 μg/kg, blood drawn two days after application, mean of 3 mice
Protocol: Active vitamin D3 (1α,25 (OH)2vitamin D3) dissolved in ethanol at the concentration of 125 μg/ml, Compounds 1 to 13 (the vitamin D derivatives obtained in the above Examples) dissolved in ethanol at the concentration of 500 μg/ml and ethanol alone (as control) were percutaneously applied once to the dorsal skin of respective 8-week-old male Balb/c mice (approximately 1.5×2.0 cm^2). The dosage was 2 ml/kg and each mouse received a necklace to prevent ingestion. On the next day, the application areas were cleaned and necklaces were removed from the mice. Two days after the application, blood was drawn from each mouse in order to measure the ionized calcium level in the blood by an ion selective electrode method. In this experiment, each group contained 3 mice. The ionized calcium levels in the Table indicate the mean values.

Compound	Human keratinocyte proliferation inhibition (relative value) [1]	Ionized Ca level [2] [mmol/L]
1α, 25(OH)2D3	1.0	
C=C1C(=CC=C2CCCC3(C)C(COCCC(C)(C)O)=CCC23)CC(O)CC1O (stereo not drawn) [Compound 1, 1α,3β-dihydroxy-17-(3-hydroxy-3-methylbutoxymethyl)-9,10-secoandrosta-5,7,10(19),16-tetraene]	0.6	1.52
C=C1C(=CC=C2CCCC3(C)C(COCCCC(O)(CC)CC)=CCC23)CC(O)CC1O (stereo not drawn) [Compound 2, 17-(4-ethyl-4-hydroxyhexyloxymethyl)-1α,3β-dihydroxy-9,10-secoandrosta-5,7,10(19),16-tetraene]	1.9	2.12
C=C1C(=CC=C2CCCC3(C)C(COCCCCC(C)(C)O)=CCC23)CC(O)CC1O (stereo not drawn) [Compound 3, 1α,3β-dihydroxy-17-(5-hydroxy-5-methylhexyloxymethyl)-9,10-secoandrosta-5,7,10(19),16-tetraene]	1.2	1.81
C=C1C(=CC=C2CCCC3(C)C(COCCCC(C)(C)O)=CCC23)CC(O)CC1O (stereo not drawn) [Compound 4, 1α,3β-dihydroxy-17-(4-hydroxy-4-methylpentyloxymethyl)-9,10-secoandrosta-5,7,10(19),16-tetraene]	0.7	1.68
C=C1C(=CC=C2CCCC3(C)C(COCC#CC(C)(C)O)=CCC23)CC(O)CC1O (stereo not drawn) [Compound 5, 1α,3β-dihydroxy-17-(4-hydroxy-4-methyl-2-pentynyloxymethyl)-9,10-secoandrosta-5,7,10(19),16-tetraene]	1.8	1.63
